Measurements reported in US20250312440A1, “CHEMICAL SCREEN OF MODULATORS FOR VACCINE ADJUVANTS” (THE UNIVERSITY OF CHICAGO, priority 2022, published 2025).

Assays:
IL-6 and TNF-α = conditions: with CPG adjuvant; cited from earlier work
TNF-α = experiment: Plasma cytokine analysis 1 hr after OVA vaccination with agonist + modulator; assay type: in vivo, mice; conditions: 1 hr after vaccination, CpG 50 μg + modulator 1.5 μmol
Protocol: All animal procedures were performed under a protocol approved by the University of Chicago Institutional Animal Care and Use Committee (IACUC). 6-to-8-week-old C57/B6 female mice were purchased from the Jackson laboratory. All vaccinations were administered intramuscularly in the hind leg. Blood was collected from the submandibular vein at time points indicated.
Mice were lightly anesthetized with isoflurane and injected intramuscularly in the hind leg with an injection volume of 50 μL containing antigen, adjuvant, and a DMSO/AddaVax combination. Antigen dose was as follows: OVA (100 μg)). Agonists doses were as follows: Flagellin, 10 μg; R848, 50 μg; CpG, 50 μg. Modulators were added at 1.5 μmol.
Blood was collected from mice at specified time points in 0.2 mL of heparin-coated collection tubes (VWR Scientific). […] Plasma was analyzed using Bio-Legend's LegendPlex™ Mouse Inflammation Cytokine Panel (13-Plex) according to the manufacturer's protocol. Samples were analyzed using an ACEA NovoCyte Flow Cytometer. Data were analyzed using LEGENDplex™ Data Analysis Software Suite and GraphPad Prism.
The inventors used the vaccine score to select modulators to test in a murine in vivo model. […] The inventors monitored inflammatory cytokine levels one hour following initial injections and monitored antigen specific antibody levels at the indicated timepoints post-boost (FIG. 6A). […]

human THP-1 monocytes = experiment: Cytokine level screening in THP-1 cells (AlphaLISA/AlphaPlex, modulator + agonist); assay type: cell-based
Protocol: THP-1 cells were seeded at 50,000 cells per well in 45 μL of biotin-free RPMI+5% HI-FBS in clear 384 well plates. Following 24h incubation, 50 nL of 10 mM modulator libraries were added by Janus G3 via pintool to experimental wells (cols 3-22) for a final concentration of 10 μM. After 1 hour, 5 μL of agonist was added via a MultiDrop Combi liquid handler (col 3-23). The following day, 5 μL of supernatant was transferred to white low volume ProxiPlates. 10 μL of a prepared acceptor bead (10 μg/mL final conc), biotinylated antibody (1 nM final conc) mixture was added via liquid handler to the cell supernatant. After 1 hr incubation at RT, 5 μL of donor beads (40 μg/mL final conc) were added in the dark. After an additional 1 hr incubation, plates were read on a plate reader with AlphaPlex filters for europium (615 nm) and terbium (545 nm) emission. A separate plate was run each day containing a standard curve of known analyte for interpolation purposes.
Cytokines and chemokines are a broad category of secreted proteins important for adjuvants in regulating adaptive immunity (23). However, excessive production of cytokines by adjuvants can result in direct tissue damage and are correlated with vaccine tolerability (24, 25). To validate the findings of the primary screening results and to explore the impact on downstream immune outcomes, the inventors measured levels of six cytokines and chemokines involved in inflammation and adaptive responses (IL-12p40, IP-10, IL-1b, CCL4, TNF-α, and IFN-b, Table 4). The inventors measured cytokine expression through AlphaLISA, an assay well-suited to high throughput due to its large dynamic range, in situ measurement, and broad range of cytokines. It has been previously used to investigate small molecule biological inhibitors (26-28).
Cell supernatants were collected and cytokines were measured in three duplex measurements (FIG. 11A). Similarly, the inventors optimized standard curve ranges, crosstalk correction factors, incubation times and other factors of the secondary screen (FIGS. 11B-11D). As in the inventors' primary screen, modulators enhance or inhibit cytokine production among all six cytokines and for each agonist independently (FIGS. 4A-4G, FIG. 11E). The distributions within cytokines vary based on the dynamic range and Z-factor obtained for each cytokine and agonist studied (Table 5). High throughput screening utilizes Z-factors as a proxy for statistical reliability of an assay, due to the dynamic range of the positive controls and the inherent cytokines secreted for each agonist, a Z-factor score greater than zero was not obtained for certain agonists/[…] combinations. Since each agonist produced differing levels of cytokine that were sometimes at the limits of standard curve, amending this assay to a high throughout nature was challenging. […] Since the inventors measured fold-change and reduce dimensionality further in analysis, this approach was adequate to compare compounds within the inventors' dataset for down-selection.
After considering categorical and ranked scoring systems, the inventors decided the best representation of modulator performance would need to preserve cytokine changes but do so by normalizing for each cytokine's and agonist's dynamic range (37). Because of the differences in dynamic range of all the inventors' six cytokines, the inventors sought to normalize the data to ensure no distribution would bias the inventors' results. Thus, the inventors transformed each cytokine's distributions to a range from −1 to 1 (FIG. 5A). Unlike the previous screen, the inventors considered increases and decreases in cytokine responses separately when selecting molecules for vaccination studies. In the vaccine score, a promising candidate would need to produce minimal pro-inflammatory cytokines while increasing IFN-b and chemokine production (24, 25). Additionally, the inventors might prioritize the importance of one cytokine's modulation over another. […]

[1] = THP-1, 10 μM modulator, across agonists
[2] = THP-1, 10 μM modulator, across receptors studied

Question: With COc1cc(CNC(=O)CCCC/C=C/C(C)C)ccc1O [capsaicin] as the molecule, how does the “pro-inflammatory systemic IL-6 and TNF-α levels” value (IL-6 and TNF-α) read?
Answer: reduce

Question: With CN1CCN(C2CCN(C(=O)Nc3cc(Oc4ccc(NC(=O)C5(C(=O)Nc6ccc(F)cc6)CC5)c(F)c4)ccn3)CC2)CC1 [compound 2, Golvatinib] as the molecule, how does the “systemic TNF-α for CpG” value (TNF-α) read?
Answer: ~0

Question: Which “IFN-b production, modulator+agonist vs agonist alone” value (human THP-1 monocytes; [1]) does the source give for CN(C)c1ccc2c(c1)Sc1cc(N(C)C)ccc1N2.CS(=O)(=O)O.CS(=O)(=O)O [TRx0237(LMTX) mesylate] here?
Answer: enhance IFN-b secretion across all agonists studied

Question: What about the “TNF-α enhancement using cGAMP” value (human THP-1 monocytes; THP-1, 10 μM modulator, cGAMP) of the same molecule?
Answer: up to 36 fold

Question: With O=c1cc(-c2cccc3c2Sc2ccccc2S3)oc(N2CCOCC2)c1 [compound 3] as the molecule, how does the “systemic TNF-α for CpG” value (TNF-α) read?
Answer: ~0

Question: For C=CCc1ccc(O)c(-c2ccc(O)c(CC=C)c2)c1 [honokiol], which “pro-inflammatory systemic IL-6 and TNF-α levels” value (IL-6 and TNF-α) is on record?
Answer: reduce

Question: With Cc1ccc(NC(=O)c2ccc(CN3CC[C@H](N(C)C)C3)c(C(F)(F)F)c2)cc1Nc1nccc(-c2cncnc2)n1 [Bafetinib] as the molecule, how does the “difference in enhancement of IP-10 and IFN-b between agonists” value (human THP-1 monocytes; Pam3, Pam2 vs cGAMP) read?
Answer: ~2 orders of magnitude

Question: With CS[C@@]1(C(=O)Nc2ccc3[nH]nc(-c4ccc(OC(C)C)nc4)c3c2)CCN(CC(=O)N2CC=C(c3ccc(-c4ncn(C)n4)cc3)CC2)C1 [MK-8353] as the molecule, how does the “IFN-b production, modulator+agonist vs agonist alone” value (human THP-1 monocytes; [1]) read?
Answer: ablates

Question: And the “IL-12 production, modulator+agonist vs agonist alone” value (human THP-1 monocytes; [1])?
Answer: ablates

Question: And the “IP-10 production, modulator+agonist vs agonist alone” value (human THP-1 monocytes; [1])?
Answer: ablates

Question: What about the IL-1b enhancement (human THP-1 monocytes; [2]) of the same molecule?
Answer: up to 100 fold

Question: What about the TNF-α enhancement (human THP-1 monocytes; [2]) of the same molecule?
Answer: up to 100 fold
